Results from US11628198B2, “Methods for prevention and treatment of acute renal injury” (Cornell University, priority 2008, dated 2023).
Marks after values point to notes of the source that are not given here.

Experiments:
Type in all cases: in vivo, rat
renal mitochondria = assay: I/R model: respiration of isolated renal mitochondria; settings: after 45 min ischemia, pretreatment
Procedure: Results. The effects of the aromatic-cationic peptides of the invention on a model of ARI caused by ischemia-reperfusion were investigated. Renal mitochondria were isolated in accordance with the procedures described above and oxygen consumption was measured.
State 3 respiration was initiated with the addition of ADP.

ARI caused by cisplatin = assay: Cisplatin-induced ARI model
Procedure: Sprague-Dawley rats (350-400 g) were given a single dose of cisplatin (7 mg/kg) intraperitoneally on Day 1. One group of rats (n=8) received one dose of SS-31 (3 mg/kg) subcutaneously just prior to cisplatin administration, and repeated once daily for 3 more days. A second group of rats (n=8) […] received an equal volume of saline on the day of cisplatin administration and for 3 more days after.
Experimental Protocol: Rats had free access to tap water and standard rat chow prior to cisplatin administration. Control blood samples were obtained from the tail vein before cisplatin administration. Saline or SS-31 (dissolved in saline) was administered to the rats subcutaneously prior to cisplatin injection. Cisplatin (dissolved in saline) was administered at a dose of 7 mg/kg intraperitoneally. All rats then received either saline or SS-31 (3 mg/kg) daily for 3 days. Rat were placed in metabolic cages for the last 24 hours for urine collection. At the end of this period, a blood sample was withdrawn from the tail vein. After this, the animals were anesthetized, kidneys were removed, and the animals euthanized.
Renal function: Renal function was assessed by blood urea nitrogen (BUN), serum creatinine, urine creatinine, and urine protein (Beckman ALX Chemical Analyzer). GFR was estimated from creatinine clearance which was determined from urinary creatinine, urine flow rate, and serum creatinine.
Renal Histology: Kidneys were fixed in 10% neutral-buffered formalin and embedded in paraffin wax. Three micron sections were stained with periodic acid-Schiff (PAS) and analyzed by light microscopy.

[1] = tested on: ARI caused by ischemia-reperfusion (I/R); assay: I/R model of ARI: BUN and serum creatinine; settings: 45 min ischemia and 24 h reperfusion; 3 mg/kg 30 min before ischemia and before reperfusion
Procedure: (§1) Sprague Dawley rats (250˜300 g) were assigned to four groups: (1) sham surgery group without I/R; (2) I/R+saline vehicle treatment; (3) I/R+SS-20 treatment; (4) I/R+SS-31 treatment. Each experimental group consisted of 8 rats. SS-20 and SS-31 (3 mg/kg, dissolved in saline) were administered to rats 30 min before ischemia and immediately before onset of reperfusion. The control rats were given saline alone on the same schedule.
(§2) Rats were anesthetized with a mixture of ketamine (90 mg/kg, i.p.) and xylazine (4 mg/kg, i.p.). The left renal vascular pedicle was occluded temporarily using a micro-clamp for 30 or 45 min. At the end of the ischemic period, reperfusion was established by removing of the clamp. At that time, the contralateral right kidney was removed. After 24 h reperfusion, animals were sacrificed and blood samples were obtained by cardiac puncture. Renal function was determined by blood urea nitrogen (BUN) and serum creatinine (BioAssay Systems DIUR-500 and DICT-500).
BUN and serum creatinine were assayed using kits from BioAssay Systems (DIUR-500 and DICT-500). […] The # indicates p<0.05 from the IR=saline group.

[2] = tested on: CCl4 induced chronic nephrotoxicity; assay: CCl4 chronic kidney injury model: renal histology; settings: 10 mg/kg s.c. 5 days a week for 7 wks
From the text: Study design and experimental protocol: In this model, SD rats with body weight of 250 g were fed with 0.35 g/L phenobarbital solution (Luminal water) for two weeks, then divided into three groups and treated as follows.
At the end of fifth week, four rats from each group were sacrificed for liver histopathological sectioning and fibrosis examination. In the end of 7th week, all remaining rats in each group were sacrificed, and kidney and liver tissues were harvest for histopathological sectioning and examination.
Renal Histology: Kidneys were fixed in 10% neutral-buffered formalin and embedded in paraffin wax. Three micron sections were stained with hematoxylin-eosin (H&E) and analyzed by light microscopy by a certified pathologist.

[3] = tested on: heme oxygenase-1 (HO-1) expression; assay: 14-day UUO model: RT-PCR for HO-1
Procedure: Sprague-Dawley rats underwent unilateral ureteral ligation (UUO) with 4-0 silk suture through a midline abdominal incision under sterile conditions. Ureteral obstruction was carried out by ligating the left ureter at the end of lower ureter, just above the ureterovesical junction.
SS-31 (1 mg/kg or 3 mg/kg; n=8) was administered intraperitoneally, one day prior to UUO and continuing for 14 days. A separate group of animals was given saline, as a vehicle control (n=16).
Polymerase Chain Reaction Analysis: PCR for heme oxygenase-1 (HO-1) isolated from kidneys was performed as follows. Rat kidneys were harvested and were kept at −80° C. until use. Total RNA was extracted using the Trizol®-Chloroform extraction procedure. mRNA was purified using the Oligotex mRNA extraction kit (Qiagen, Valencia, Calif.) according to manufacturer's instructions. mRNA concentration and purity were determined by measuring absorbance at 260 nm. RT-PCR was preformed using Qiagen One-step PCR kit (Qiagen, Valencia, Calif.). PCR was performed in an automated thermal cycler ThermoHybrid, PX2 with an initial activation step for 15 min at 95° C. followed by 35 cycles of denaturation for 45 s at 94° C., annealing for 30 s at 60° C., extension for 60 s at 72° C. […] Bands on gels were visualized by ethidium bromide staining and analyzed using Image J densitometric analysis software. […]

[4] = tested on: ARI caused by ischemia-reperfusion (I/R); assay: I/R model: renal morphologic examination (H&E, PAS); settings: 45 min ischemia and 24 h reperfusion
Procedure: as §1, §2
Renal Morphologic Examination: Kidneys were fixed in 10% neutral-buffered formalin and embedded in paraffin wax. Three micron sections were stained with hematoxylin-eosin (H&E) and periodic acid-Schiff (PAS) and analyzed by light microscopy. Lesions were scored using the following criteria: [1] mitosis and necrosis of individual cells; [2] necrosis of all cells in adjacent proximal convoluted tubules with survival of surrounding tubules; [3] necrosis confined to the distal third of the proximal convoluted tubule with a band of necrosis extending across the inner cortex; and [4] necrosis affecting all three segments of the proximal convoluted tubule.

[5] = 3 days after cisplatin, 3 mg/kg s.c. daily

**Q.** D-Arg-2′6′Dmt-Lys-Phe-NH2 [SS-31] was tested. Which “renal mitochondrial oxygen consumption (state 3 respiration)” value (renal mitochondria) did it give?
**A.** significantly improved oxygen consumption

**Q.** And the “rats with no change in serum creatinine (<0.4 mg/dl)” value (ARI caused by cisplatin; 3 days after cisplatin)?
**A.** 5 out of 8

**Q.** What about the BUN (ARI caused by cisplatin; [5]) of the same substance?
**A.** 29.3 ± 25 mg/dL

**Q.** And the Kidney weight (ARI caused by cisplatin; [5])?
**A.** 1.6 ± 0.2 g

**Q.** And the body weight (ARI caused by cisplatin; [5])?
**A.** 384 ± 28 g

**Q.** And the serum creatinine (ARI caused by cisplatin; [5])?
**A.** 0.8 ± 0.73 mg/dL

**Q.** What about the BUN (ARI caused by cisplatin; before cisplatin treatment) of the same substance?
**A.** 15.5 ± 1.7 mg/dL

**Q.** What about the body weight (ARI caused by cisplatin; before cisplatin treatment) of the same substance?
**A.** 376.9 ± 5.2 g

**Q.** What about the serum creatinine (ARI caused by cisplatin; before cisplatin treatment) of the same substance?
**A.** 0.4 ± 0.09 mg/dL

**Q.** And the BUN [1]?
**A.** 113.8 ± 11.4# mg/dl

**Q.** And the “serum creatinine” value [1]?
**A.** 1.05 ± 0.16# mg/dl

**Q.** And the “renal histology (H&E)” value [2]?
**A.** no observable histopathological change

**Q.** And the “HO-1 expression in the obstructed kidney” value [3]?
**A.** decreased HO-1 expression

**Q.** And the histopathological score [4]?
**A.** significantly improved histopathological score

**Q.** And the “tubular cell injury (H&E, PAS)” value [4]?
**A.** protected brush border and prevented necrosis in the proximal tubules
